Measurements as given in paper PMC8838847, “Design, Synthesis and Cytotoxicity of Thiazole-Based Stilbene Analogs as Novel DNA Topoisomerase IB Inhibitors” (Molecules, 2022).

Assays:
[1] = system: human breast cancer (MCF-7) cells; assay: MTT cytotoxicity assay, MCF-7; format: cell-based; conditions: five doses 0.01-100 µM
Protocol: (§1) The cytotoxicity of the desired compounds was assessed through MTT assay against two human cancer cell lines, human breast cancer (MCF-7) and colon cancer (HCT116), and one normal cell line, human embryonic kidney 293T (HEK293T). CPT and etoposide (VP-16) were used as positive controls. The compounds were incubated with cells for 72 h in a five-dose assay ranging from 0.01 to 100 µΜ. After the drug treatments, MTT solution was added to test the percentage growth of tumor cells.
(§2) The cells were cultured on RPMI 1640 Medium at 37 °C in a humidified atmosphere with 5% CO2. The cytotoxicities of the target compounds were evaluated through MTT assay against two human cancer cell lines (human breast cancer MCF-7 and human colon cancer HCT116). For the compound treatment experiments, the cancer cells were treated with the compounds (pre-dissolved in DMSO) via a five-dose assay ranging from 10^−8 to 10^−4 M. After incubation for 72 h at 37 °C, MTT solution (20 μL, 2.5 mg/mL) in PBS (PBS without MTT as the blank) was added to each well of the culture plate. After incubation for 4 h, the formazan crystal formed in the well was dissolved in 100 μL of DMSO for an optical density of 570 nm. The IC50 value was calculated using nonlinear regression analysis (GraphPad Prism). Every experiment was conducted three times, independently.

[2] = system: human colon cancer (HCT116) cells; assay: MTT cytotoxicity assay, HCT116; format: cell-based; conditions: five doses 0.01-100 µM
Protocol: as §1, §2

calf thymus Top1 = molecular target: T1, calf thymus Top1 (Bos taurus, UniProt F1MN93); assay: Top1-mediated DNA relaxation assay; format: biochemical; conditions: for supercoiled DNA remaining: compound at 125 μM; for Relaxation Assay (Top1 inhibitory activity): compounds at 50 µM, semi-quantitative, relative to CPT at 50 µM
T1 construct: 1 unit of calf thymus Top1; from tissue; host or cells: calf thymus
T1 sequence (F1MN93 1-767): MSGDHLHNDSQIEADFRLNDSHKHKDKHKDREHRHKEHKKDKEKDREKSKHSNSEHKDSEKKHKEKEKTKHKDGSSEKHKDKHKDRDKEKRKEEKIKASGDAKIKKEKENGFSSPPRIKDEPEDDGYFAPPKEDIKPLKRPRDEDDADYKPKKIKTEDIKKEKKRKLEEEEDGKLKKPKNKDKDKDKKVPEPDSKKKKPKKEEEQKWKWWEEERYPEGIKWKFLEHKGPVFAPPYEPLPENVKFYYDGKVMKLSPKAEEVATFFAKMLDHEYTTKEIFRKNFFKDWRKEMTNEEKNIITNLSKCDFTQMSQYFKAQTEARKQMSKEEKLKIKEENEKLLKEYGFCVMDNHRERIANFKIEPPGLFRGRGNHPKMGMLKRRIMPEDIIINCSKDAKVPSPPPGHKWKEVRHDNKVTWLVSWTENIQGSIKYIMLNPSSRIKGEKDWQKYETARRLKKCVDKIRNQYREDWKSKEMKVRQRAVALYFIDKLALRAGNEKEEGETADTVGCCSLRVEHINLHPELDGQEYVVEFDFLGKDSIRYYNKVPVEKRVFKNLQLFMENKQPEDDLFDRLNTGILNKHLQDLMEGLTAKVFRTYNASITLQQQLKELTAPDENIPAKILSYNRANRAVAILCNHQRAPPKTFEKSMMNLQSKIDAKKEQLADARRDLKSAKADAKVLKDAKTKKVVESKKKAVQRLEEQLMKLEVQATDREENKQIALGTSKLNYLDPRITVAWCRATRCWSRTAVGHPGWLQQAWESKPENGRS
Protocol: The synthesized compounds 6–37 were evaluated for Top1 inhibitory activity by measurement of the Top1-mediated DNA relaxation assay. The compounds were tested at 50 µΜ using CPT as positive control, and the results were semi-quantitatively expressed relative to CPT at 50 µΜ as follows: ++++, more than 80% activity; +++, between 40% and 79% activity; ++, between 10% and 39% activity; +, less than 10% activity. […] In phenyl A, the 4-position halogen (X) remarkably affected the inhibition against Top1. […] In phenyl B, the introduction of substituents at the 3-position was beneficial for the Top1 inhibition, and the derivatives presented good tolerance of the 3-substituents, since compounds 8 (++++) and 13 (+++) with electron-donating -Me or -OMe and also compound 19 (+++) with electron-withdrawing -Br had good inhibition against Top1. For substituents at the 4-position, the strong electron-withdrawing -CF3 (10, +++) and -F (15, +++) increased the Top1 inhibitory activity compared to compound 6 (R = H), while the weak electron-withdrawing -Cl (17, +) and the electron-donating -Me (9, +) and -OMe (14, +) decreased the activity, with the exception of tert-Bu (11, +++).
As previously mentioned, compound 8 had the best inhibition activity against Top1, and therefore was selected for further investigation. A semi-quantitative Top1-mediated relaxation assay of compound 8 was performed at concentrations of 0.2, 1, 5, 25 and 125 μM.
The compounds were tested for their Top1 inhibitory activity using a Top1-mediated relaxation assay. Briefly, the reaction mixture (20 μL) with 0.5 μg of supercoiled pBR322 DNA in relaxation buffer (10 mM Tris-HCl, pH 7.5, 50 mM KCl, 5 mM MgCl2, 15 μg/mL BSA, 40 μg/mL DTT) was incubated with 1 unit of calf thymus Top1 in the absence or in the presence of the compound for 30 min at 37 °C. Then, the reaction solution was added with 6 × loading buffer (4 μL) and was analyzed using a 0.8% agarose gel in TBE buffer at 4.6 V/cm for 1.5 h. Gel was stained with 1 × GelRed for 30 min and subsequently visualized with a UV transilluminator.

[3] = MTT cytotoxicity assay, HEK293T normal cells; format: cell-based, human; conditions: human, HEK293T cells (normal cell line)
Protocol: as §1, §2

[4] = system: human embryonic kidney 293T (HEK293T) cells; assay: MTT cytotoxicity assay, HEK293T normal cells; format: cell-based; conditions: 72 h, normal cell line
Protocol: as §1, §2

[5] = semi-quantitative relaxation assay (Figure 3)

Row | SMILES | IC50 ([1]; Homo sapiens, MCF7, 72 h) | IC50 ([2]; Homo sapiens, HCT-116, 72 h) | supercoiled DNA remaining (calf thymus Top1; [5]) | IC50 at 72 h [3] | melting point | Top1 inhibition compared with CPT (calf thymus Top1; compound at 25 μM, semi-quantitative relaxation assay (Figure 3)) | IC50 [4] | IC50 ([1]; 72 h) | IC50 ([2]; 72 h) | Relaxation Assay (Top1 inhibitory activity) (calf thymus Top1)
1 | CC[C@@]1(O)C(=O)OCc2c1cc1n(c2=O)Cc2cc3ccccc3nc2-1 [CPT, camptothecin, reference compound] | 0.34 ± 0.026 µM | 0.012 ± 0.001 µM | 58% | 0.1 ± 0.003 µM | – | – | – | – | – | –
2 | Cc1cccc(/C=C/c2nc(-c3ccc(F)cc3)cs2)c1 [Compound 8, (E)-2-(3-methylstyryl)-4-(4-fluorophenyl)thiazole] | – | – | 75% | > 10 µM | 148 to 149 °C | equipotent Top1 inhibition with CPT | 10.2 ± 0.68 µM | – | – | –
3 | CC(C)(C)c1ccc(/C=C/c2nc(-c3ccc(F)cc3)cs2)cc1 [Compound 11, (E)-2-(4-tert-butylstyryl)-4-(4-fluorophenyl)thiazole] | < 10 µM | – | – | > 10 µM | 146 to 148 °C | – | 12 ± 2.45 µM | 6.31 ± 0.51 µM | – | –
4 | CC(C)(C)c1ccc(/C=C/c2nc(-c3ccc(Cl)cc3)cs2)cc1 [Compound 23, (E)-4-(4-chlorophenyl)-2-(4-(tert-butyl)styryl)thiazole] | < 10 µM | < 5 µM | – | > 10 µM | 74 to 75 °C | – | 18.7 ± 1.37 µM | 7.22 ± 0.4 µM | 2.87 ± 0.26 µM | + (less than 10% activity)
5 | COc1ccccc1/C=C/c1nc(-c2ccc(Br)cc2)cs1 [Compound 30, (E)-4-(4-bromophenyl)-2-(2-methoxystyryl)thiazole] | > 100 µM | > 100 µM | – | – | 110 to 112 °C | – | – | – | – | + (less than 10% activity)
6 | COc1cccc(/C=C/c2nc(-c3ccc(Br)cc3)cs2)c1 [Compound 31, (E)-4-(4-bromophenyl)-2-(3-methoxystyryl)thiazole] | 45.8 ± 4.47 µM | 40.3 ± 7.8 µM | – | – | 112 to 113 °C | – | – | – | – | + (less than 10% activity)
7 | COc1ccc(/C=C/c2nc(-c3ccc(Br)cc3)cs2)cc1 [Compound 32, (E)-4-(4-bromophenyl)-2-(4-methoxystyryl)thiazole] | > 100 µM | > 100 µM | – | – | 189 to 191 °C | – | – | – | – | + (less than 10% activity)
8 | Oc1ccccc1/C=C/c1nc(-c2ccc(Br)cc2)cs1 [Compound 33, (E)-2-(2-(4-(4-bromophenyl)thiazol-2-yl)vinyl)phenol] | 39.2 ± 1.79 µM | < 5 µM | – | – | 226 to 228 °C | – | – | – | 4.15 ± 0.76 µM | + (less than 10% activity)
9 | Oc1ccc(/C=C/c2nc(-c3ccc(Br)cc3)cs2)cc1 [Compound 35, (E)-4-(2-(4-(4-bromophenyl)thiazol-2-yl)vinyl)phenol] | 38 ± 5.82 µM | < 5 µM | – | – | 204 to 205 °C | – | – | – | 2.86 ± 0.46 µM | + (less than 10% activity)
10 | CC(C)=CCOc1ccc(/C=C/c2nc(-c3ccc(Br)cc3)cs2)cc1 [Compound 37, (E)-4-(4-bromophenyl)-2-(4-((3-methylbut-2-en-1-yl)oxy)styryl)thiazole] | > 100 µM | > 100 µM | – | – | 134 to 135 °C | – | – | – | – | + (less than 10% activity)
